Results as given in patent publication US10329235B2, “System and method for producing 1,4-cyclohexanedimethanol and 1,4- cyclohexanedicarboxylic acid from terephthalic acid” (ClearWaterBay CHDM Technology Limited, priority 2017, dated 2019).

How the values were obtained:
[1] = Dissolution of TPA and CHDA in water in stirred autoclave (Examples 1-3); format: physicochemical; details: Examples 1-3: 1.7-1.9 wt % TPA, 28.1-48.2 wt % CHDA, 50-70 wt % water, 170-190 °C, 10 MPa, 15 minutes
Experimental: These examples are provided to highlight and validate the use of the method based on the dissolution chart for setting solvent and recirculation flows. For each of these examples, a slurry was prepared in a stirred autoclave, by mixing pre-determined amounts of water, TPA in powder form, and CHDA (22% trans) in powder form. The autoclave was then pressurized to 10 MPa using nitrogen gas and the temperature was then raised to the pre-determined level. Samples were drawn after 15 minutes of operation at this temperature level and analyzed to determine the compositions of TPA and CHDA. The predetermined feed mixture compositions and the pre-determined temperature levels for these experiments are shown in Table 1 below. Each pre-determined feed mixture composition is chosen such that it very closely corresponds to water/TPA and recirculation/TPA flow ratios that may be used in actual operation according to the preferred values from FIG. 6.

[2] = Solubility of TPA in water; format: physicochemical
Text: Based on this, it is clearly evident that it will be beneficial to have processes for production of CHDM and CHDA directly from TPA without going through an intermediate TPA derivative. As noted initially, the main hurdle for such processes is getting TPA into the liquid phase.

| SMILES | Dissolution in water/TPA/CHDA mixture [1] | TPA Solubility ([2]; 150 °C) [wt fraction] | TPA Solubility ([2]; 200 °C) [wt fraction] | TPA Solubility ([2]; 250 °C) [wt fraction] |
| --- | --- | --- | --- | --- |
| O=C(O)C1CCC(C(=O)O)CC1 (centres unmarked) [CHDA, 1,4-cyclohexanedicarboxylic acid] | completely dissolved |  |  |  |
| O=C(O)c1ccc(C(=O)O)cc1 [TPA, terephthalic acid] | completely dissolved | 0.0022 | 0.016 | 0.11 |
